Tests used:
Assay type in all cases: in vivo, human
[1] = Blood absolute lymphocyte counts (ALC); conditions: 5 CLL/SLL patients
Description: Treatment-related increases in blood absolute lymphocyte counts (ALC) occurred in both CLL/SLL and FL patients (FIG. 6A and FIG. 6B). Of the 6 CLL/SLL patients treated with cerdulatinib, 5 remained on drug long enough to monitor ALC, which were elevated 0.3-10 fold relative to pre-treatment. For two of these patients, treatment-related changes in tumor cell surface activation and homing markers were additionally evaluated (FIG. 7A and FIG. 7B). As shown in the ALC plots over time (FIG. 6A and FIG. 6B), by the beginning of the second cycle of treatment (Cycle 2 Day 1; C2D1) there was considerable mobilization of tumor cells into the peripheral blood.

[2] = Cerdulatinib plasma concentration in patients (LC-MS/MS)
Procedure: Blood samples were collected on K2EDTA for the determination of total cerdulatinib plasma concentrations on day 1 prior to dosing and at 0.5, 1, 2, 3, 4, 6, 8, and 12 hours post-dose; on Day 8 at pre-dose and 2 hours post-dose; on Day 15 pre-dose; and on Day 28 (end of the first treatment cycle) at pre-dose and at 0.5, 1, 2, 3, 4, 6, 8, and 12 hours post-dose. A liquid chromatography-tandem mass spectrometry (LC-MS/MS) method was developed and validated by Alturas Analytics, Inc. (Moscow, Id.) for the determination of cerdulatinib concentration in human plasma. […] J Pharmacol Exp Ther, 2014. 351(3): p. 538-48. Chromatographic separations were performed over a Phenomenex Synergi Polar-RP column (50×2.0 mm, 4 μm) (Phenomenex, Torrance, Calif., USA). MS/MS analysis was performed using a Sciex API-4000 triple quadrupole mass spectrometer with a TurboSpray ion source (Applied Biosystems, Foster City, Calif., USA). The peak area of the m/z 394→360 cerdulatinib product ion was measured against the peak area of the m/z 397→363 internal standard product ion. Intra-assay precision (% CV) and accuracy (% bias) were within 0.8% to 4.5% and −10.1% to 7.8%, respectively, and inter-assay precision (% CV) and accuracy (% bias) were 2.0% to 3.8% and −7.3% to 6.0%, respectively.

[3] = test system: CLL tumor cell surface CD5, CD69, CD86, CXCR4; test: CLL tumor cell surface marker expression by FACS; conditions: C2D1 vs C1D1, two CLL patients
Procedure: For PD assessments, serial blood samples were drawn into lithium-heparin vacutainer tubes on Day 1 prior to dosing and again at 0.5, 1, 2, and 4 hours post-dose; on Day 8 at pre-dose and 2 hours post-dose; and Day 28 prior to dosing. Multiple assays were performed using the Day 1 and Day 8 PD samples. SYK-mediated BCR signaling in whole blood was measured prior to and post-dosing by stimulating 100 μL whole blood with 2 μL of anti-human IgD (IgG fraction) and 10 μg anti-human IgM for 10 minutes at 37° C., measuring the induction of pSYK Y525/526, pAKT S473, and pERK Y204. Similarly, whole blood was stimulated with 10 ng/mL of IL-2 (JAK1/3-dependent), IL-4 (JAK1/3-dependent), IL-6 (JAK1/TYK2-dependent) or GM-CSF (JAK2-dependent) for 20 minutes, measuring the induction of pSTAT5 Y694 in T-cells and NK cells, the induction of pSTAT6 Y641 in B cells, T-cells, NK cells, and monocytes, the induction of pSTAT3 Y705 in monocytes, B cells, and T-cells, and the induction of pSTAT5 Y694 in monocytes, respectively. The technical details for these assays were described in Coffey, G., et al., J Pharmacol Exp Ther, 2014. 351(3): p. 538-48. With blood samples from the CLL patients only, tumor cell surface expression of CD5, CD69, CD86, and CXCR4 pre-dose on days 1 and 28 were monitored. The recommended volume of antibodies were applied directly to 100 μL whole blood and incubated for 1 hour at room temperature. Afterwards, 4 mL of BD Lyse/Fix reagent was added to the blood to lyse red blood cells and fix the remaining leukocytes, followed by washing and FACS analysis. For each assay, data were collected using an LSR II instrument (BD Bioscience, San Jose, Calif.) and analyzed using Flowjo software (Flowjo LLC, Ashland, Oreg.). Data were normalized to the induction of each parameter prior to dosing on day 1 to generate percent inhibition post-dosing.

Q: With `CCS(=O)(=O)N1CCN(c2ccc(Nc3ncc(C(N)=O)c(NC4CC4)n3)cc2)CC1` [cerdulatinib, 4-(cyclopropylamino)-2-((4-(4-(ethylsulfonyl)piperazin-1-yl)phenyl)amino)pyrimidine-5-carboxamide] as the molecule, how does the “ALC elevation relative to pre-treatment” value [1] read?
A: 0.3-10 fold

Q: What about the SSCmin achieved ([2]; CLL/SLL patients, lower dose cohorts) of the same molecule?
A: 0.004 to 0.325 µM

Q: What about the “SSCmin exposures at which tumor responses were more apparent” value ([2]; FL patients) of the same molecule?
A: 0.729 to 1.219 µM

Q: What about the “SSCmin to SSCmax cerdulatinib serum concentrations” value ([2]; human, in vivo) of the same molecule?
A: 0.32 to 0.38 µM

Q: What about the “SSCmin that was well tolerated” value ([2]; phase 1 dose-escalation) of the same molecule?
A: up to 1 μM

Q: What about the “average SSCmin” value ([2]; phase 2 dose 30 mg BID) of the same molecule?
A: ~0.8 µM

Q: And the CD5 expression [3]?
A: reduced

Q: And the CXCR4 expression [3]?
A: enhanced

Q: And the “expression of surface activation markers CD69 and CD86” value [3]?
A: decreased expression
